The values that follow are results of earlier work, collected in US9630918B2, “Cysteine, N-acetylcysteine, and penicillamine related compounds, pharmaceutical compositions thereof, and methods of use” (priority 2015, dated 2017).

Test in data set [1]: not given
This is another data set of the same source.

Data set [2] deals with stable COPD. As to conditions: patients with stable COPD, clinical study.

In the case of `CC(C)(S)[C@@H](N)C(=O)O` [D-penicillamine, D-Penicillamine], the interpatient oral variability result is given as “high degree of interpatient oral variability”.
As for `CC(=O)N[C@@H](CS)C(=O)O` [NAC, N-Acetyl-L-cysteine], the oral bioavailability in data set [1] was 4-10%. In addition, in data set [2], the exacerbation frequency entry is “decrease exacerbation frequency” and the small airways function entry is on record as “improve small airways function”.
